The values that follow come from PubChem BioAssay (NCI).

The term TGI denotes the concentration at which net growth stops. A higher TGI goes with lower sensitivity of the cells. A word on the GI50: it is the concentration at which growth is held to half of that of the control.

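The compound was tested at five concentrations on cells cultured in 96-well plates, with a 48-hour exposure period. GI50: concentration for 50% inhibition of growth. TGI marks complete inhibition of growth.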 Some results are limits rather than exact numbers.

Among the test systems are SNB-19 CNS; SF-539 CNS; K-562 leukemia; UO-31 renal; CCRF-CEM leukemia; RXF 393 renal; HOP-62 NSCLC; HS 578T breast; NCI/ADR-RES ovarian.
Common to all, as to assay: DTP human tumour cell line panel, 48 h

As for `CC[C@@H]1C[C@H]2CC3c4[nH]c5ccc(O)cc5c4CCN(C2)C31`, the TGI in the assay with SNB-19 CNS, in the assay on SF-539 CNS, in the assay with K-562 leukemia, in the assay on UO-31 renal, with CCRF-CEM leukemia and with RXF 393 renal was above 100 µM in each case. This molecule showed a TGI in the assay on HOP-62 NSCLC above 100 µM.

`Cc1nn(-c2nc3ccccc3s2)c2c1C(=O)c1ccccc1-2`: the TGI with SNB-19 CNS, in the assay on SF-539 CNS, in the assay on K-562 leukemia, with UO-31 renal, in the assay on RXF 393 renal and with HOP-62 NSCLC was above 100 µM in each case.

Consider `O=C(NC1C2CC3CC(C2)CC1C3)c1cc(/C=C/c2ccccc2)[nH]c(=S)n1` (stereo not drawn), for which the TGI with SNB-19 CNS, in the assay with SF-539 CNS, with K-562 leukemia, in the assay on UO-31 renal, in the assay with CCRF-CEM leukemia and in the assay with RXF 393 renal was above 100 µM throughout. The same molecule returned a TGI with HOP-62 NSCLC above 100 µM.

`O=C(COC(=O)c1cccc2c(=O)c3ccccc3[nH]c12)Nc1ccccc1`: the TGI in the assay with SNB-19 CNS is above 100 µM; with SF-539 CNS, above 100 µM; in the assay with K-562 leukemia, above 100 µM; in the assay with UO-31 renal, 65.4 µM; in the assay with RXF 393 renal it was 97.9 µM; with HOP-62 NSCLC, above 100 µM.

`CCCCN(CCCC)CCCn1c(=O)c2c3ccccc3n(C)c2n2nnc(-c3ccccc3)c12`: the GI50 in the assay with SNB-19 CNS is above 100 µM; in the assay with HS 578T breast, 39.9 µM; in the assay on SF-539 CNS it was 65.3 µM; with K-562 leukemia, 13.9 µM; in the assay on UO-31 renal it was 6.06 µM; in the assay on CCRF-CEM leukemia, 4.22 µM. Moreover, the figures for the GI50 in the assay on NCI/ADR-RES ovarian, in the assay with RXF 393 renal and in the assay on HOP-62 NSCLC were 14.3 µM, 14.1 µM and 30.6 µM, respectively. Besides, the TGI in the assay with SNB-19 CNS was above 100 µM; in the assay with HS 578T breast it was above 100 µM; in the assay on SF-539 CNS, above 100 µM; in the assay on K-562 leukemia, above 100 µM; in the assay on UO-31 renal it was 46.8 µM; with CCRF-CEM leukemia it was 92 µM. Besides, the TGI is 67.7 µM in the assay on NCI/ADR-RES ovarian, 43 µM with RXF 393 renal and above 100 µM with HOP-62 NSCLC.

`COc1ccc(OC(C(=O)O)c2ccccc2)c2c1CCCC2=O` (stereo not drawn): the TGI in the assay on SNB-19 CNS, with SF-539 CNS, in the assay with K-562 leukemia, in the assay with UO-31 renal, with CCRF-CEM leukemia and with HOP-62 NSCLC was above 100 µM each time.

Take `NCCN1C(=O)C2C3c4ccccc4C(c4ccccc43)C2C1=O` (stereo not drawn): the TGI with SNB-19 CNS, in the assay with SF-539 CNS, with K-562 leukemia, with UO-31 renal, in the assay with CCRF-CEM leukemia and in the assay with HOP-62 NSCLC was above 100 µM in each case.

`Cc1nn(C)cc1P(=S)(c1ccccc1)c1ccccc1`: the TGI in the assay on SNB-19 CNS, in the assay on SF-539 CNS, in the assay with K-562 leukemia, with UO-31 renal, with CCRF-CEM leukemia and with RXF 393 renal was above 100 µM in each case. In addition, in the assay on HOP-62 NSCLC, the TGI was above 100 µM.

In the case of `CC(C)(C)OC(=O)NC(CO)c1cccc(OCc2ccccc2)c1` (stereo not drawn), the TGI with SNB-19 CNS, in the assay with SF-539 CNS, with K-562 leukemia, in the assay on UO-31 renal, with CCRF-CEM leukemia and in the assay on RXF 393 renal was above 100 µM each time. In the assay with HOP-62 NSCLC, this molecule registered a TGI above 100 µM.

For `O=C(NCC(O)CNC(=O)C(F)(F)F)C(F)(F)F`, the TGI in the assay on SNB-19 CNS, with SF-539 CNS, with K-562 leukemia, with UO-31 renal, with CCRF-CEM leukemia and in the assay with RXF 393 renal was above 100 µM throughout. Besides, the TGI with HOP-62 NSCLC was above 100 µM.

For `NC(N)=NS(=O)(=O)c1ccc(Nc2c3ccccc3nc3c(C(=O)Nc4ccc(S(N)(=O)=O)cc4)ccc(Cl)c23)cc1`, the TGI in the assay on SNB-19 CNS, in the assay on SF-539 CNS, with K-562 leukemia, in the assay with UO-31 renal, in the assay with RXF 393 renal and in the assay on HOP-62 NSCLC was above 100 µM each time.

In the case of `N#C/C(=C/Sc1ccccc1)C(=O)O`, the TGI with SNB-19 CNS was above 100 µM; in the assay with SF-539 CNS, 35.2 µM; in the assay on K-562 leukemia it was above 100 µM; in the assay with UO-31 renal it was 41.4 µM; in the assay on CCRF-CEM leukemia it was above 100 µM; with RXF 393 renal it was 58.2 µM. In the assay on HOP-62 NSCLC, this molecule yielded a TGI above 100 µM.

On to `N#CCC(=O)N/N=C(\C(=O)Nc1ccc(Cl)c(Cl)c1)C1CN(c2ccccc2)N=C1N` (stereo not drawn), for which the TGI in the assay on SF-539 CNS, in the assay with K-562 leukemia, in the assay with UO-31 renal, with CCRF-CEM leukemia, with RXF 393 renal and in the assay on HOP-62 NSCLC was above 100 µM throughout.

Regarding `O=c1oc(=O)c2oc3ccccc3oc1=2`, the TGI in the assay on SNB-19 CNS, in the assay on SF-539 CNS, with K-562 leukemia, in the assay with UO-31 renal, in the assay on CCRF-CEM leukemia and in the assay on RXF 393 renal was above 100 µM throughout. Further, the TGI in the assay with HOP-62 NSCLC is above 100 µM.

For `Clc1cc2n[se]nc2cc1Cl`, the TGI in the assay with SNB-19 CNS, with SF-539 CNS, in the assay with K-562 leukemia, in the assay on UO-31 renal, in the assay on CCRF-CEM leukemia and in the assay with RXF 393 renal was above 100 µM each time. In the assay with HOP-62 NSCLC, this molecule had a TGI above 100 µM.

Take `Cc1ccc(-c2nc(N3CCCNCC3)c3oc(-c4ccccc4)nc3n2)cc1`: the GI50 was 1.82 µM in the assay with SNB-19 CNS; 1.94 µM in the assay on HS 578T breast; 1.79 µM in the assay with SF-539 CNS; 1.49 µM in the assay on UO-31 renal; 1.31 µM in the assay on CCRF-CEM leukemia; 1.75 µM in the assay on RXF 393 renal. For the same molecule, the GI50 with HOP-62 NSCLC was 1.84 µM. Also, the TGI came out at 3.45 µM with SNB-19 CNS; 4.22 µM in the assay with HS 578T breast; 3.26 µM with SF-539 CNS; 2.85 µM with UO-31 renal; 3.13 µM with CCRF-CEM leukemia; 3.29 µM in the assay on RXF 393 renal. The molecule also returned a TGI in the assay on HOP-62 NSCLC of 3.36 µM.

As for `CC1OC(OC2C(CO)OC(O[C@H]3CC[C@@]4(C)C(=CC[C@H]5[C@@H]6C[C@@H]7O[C@]8(CC[C@@H](C)CN8)[C@@H](C)[C@@H]7[C@@]6(C)CC[C@@H]54)C3)C(O)C2O)C(O)C(O)C1O` (stereo partly drawn), the TGI in the assay on SNB-19 CNS, with SF-539 CNS, in the assay on K-562 leukemia, in the assay with UO-31 renal, with CCRF-CEM leukemia and in the assay on RXF 393 renal was above 100 µM in each case. In the assay with HOP-62 NSCLC, this molecule yielded a TGI above 100 µM.

As for `CCOC(=O)/C(C#N)=C1/C(O)=C(C(=O)OC)C(C(=O)OC)=C1C(=O)OC`, the TGI in the assay on SNB-19 CNS, in the assay on SF-539 CNS, in the assay with K-562 leukemia, in the assay with UO-31 renal, in the assay on CCRF-CEM leukemia and in the assay on RXF 393 renal was above 100 µM each time.

Turning to `O=S(O)CCCSSc1ccccc1`, the TGI in the assay on SNB-19 CNS was above 100 µM; in the assay with SF-539 CNS it was 62.9 µM; in the assay on K-562 leukemia, above 100 µM; in the assay on UO-31 renal it was above 100 µM; in the assay on CCRF-CEM leukemia, 93.3 µM; in the assay on RXF 393 renal it was above 100 µM. In the assay on HOP-62 NSCLC, this molecule came in with a TGI above 100 µM.

With `CNC(=O)c1cccc2c(Nc3ccc(NS(C)(=O)=O)cc3OC)c3cccc(C)c3nc12`, the TGI in the assay on SNB-19 CNS turned out to be 5.04 µM; in the assay with SF-539 CNS it was 0.661 µM; with K-562 leukemia, 4.79 µM; in the assay on UO-31 renal, 2.89 µM; with CCRF-CEM leukemia it was 0.197 µM; in the assay with NCI/ADR-RES ovarian, 9.36 µM. In addition, the TGI turned out to be 3.52 µM in the assay on RXF 393 renal and 0.155 µM in the assay on HOP-62 NSCLC.

For the molecule `CCOc1ccccc1NC(=O)CCc1n[nH]c(=S)o1`, the TGI with SNB-19 CNS, in the assay on SF-539 CNS, in the assay on K-562 leukemia, in the assay with UO-31 renal and with CCRF-CEM leukemia was above 100 µM throughout.

Consider `O=C1CC(O)(c2ccccc2)C(c2ccccc2)=C1c1ccccc1` (stereo not drawn), for which the TGI with K-562 leukemia, with CCRF-CEM leukemia, in the assay on RXF 393 renal and in the assay with HOP-62 NSCLC was above 100 µM in each case.

Consider `CCOC(=O)c1ccc(NC(=O)SCCC(=O)O)cc1`, for which the TGI in the assay on SNB-19 CNS, in the assay on SF-539 CNS, with K-562 leukemia, in the assay with UO-31 renal, in the assay with CCRF-CEM leukemia and with RXF 393 renal was above 100 µM each time. In addition, the TGI in the assay on HOP-62 NSCLC was above 100 µM.

Consider `COC(=O)c1ccc(Cl)cc1NC(=O)C1CCCCC1`, for which the TGI with SNB-19 CNS, with SF-539 CNS, with K-562 leukemia, in the assay on UO-31 renal and with RXF 393 renal was above 100 µM throughout.

For the molecule `CCC[CH2][Sn]1([CH2]CCC)[O]C(=O)c2ccc(C)cc2[O]1`, the GI50 with SNB-19 CNS was 0.32 µM; in the assay on SF-539 CNS, 0.518 µM; in the assay with K-562 leukemia, 0.247 µM; in the assay on UO-31 renal, 0.845 µM; in the assay on CCRF-CEM leukemia it was 0.222 µM; with RXF 393 renal, 0.306 µM. Moreover, the GI50 in the assay with HOP-62 NSCLC was 2.16 µM. Besides, the TGI came to 1.12 µM in the assay with SNB-19 CNS; 1.73 µM in the assay with SF-539 CNS; 0.846 µM in the assay with K-562 leukemia; 2.08 µM in the assay on UO-31 renal; 0.874 µM in the assay on CCRF-CEM leukemia; 0.839 µM in the assay with RXF 393 renal. In the assay with HOP-62 NSCLC, the TGI worked out at 3.88 µM.

With `OC1C2CCC1C1C3C=CC(C3)C21` (stereo not drawn), the TGI in the assay on SNB-19 CNS, in the assay on K-562 leukemia, with UO-31 renal, with CCRF-CEM leukemia, in the assay on RXF 393 renal and in the assay with HOP-62 NSCLC was above 100 µM throughout.
